Patent US9505773B2 (Isomerase Therapeutics Limited, priority 2013, dated 2016)

What was measured:
[1] = test system: murine T cell proliferation (PLP peptide-stimulated lymph node cells; mTOR-driven); experiment: Murine PLP T cell proliferation assay (PLP assay); type: cell-based; conditions: for IC50: Mus musculus, PLP T-cell proliferation assay; for Ratio (PLP/FKBP*): PLP IC50 / FKBP12 Ki (Ki values from Example 19)
[2] = molecular target: FKBP12 (Homo sapiens (Human), UniProt P62942); experiment: FKBP12 PPlase assay; type: biochemical; conditions: for Ki: FKBP12 PPlase assay, 6 concentrations in duplicate, data fitted to a Ki curve; for inhibition at 1 µM: read-out: inhibition of FKBP12 at 1 uM
FKBP12, sequence (P62942 whole entry, species assumed): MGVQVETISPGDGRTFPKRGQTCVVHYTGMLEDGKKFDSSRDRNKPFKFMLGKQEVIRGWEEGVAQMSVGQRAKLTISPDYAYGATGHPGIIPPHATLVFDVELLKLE

Row | Ki [2] [nM] | inhibition at 1 µM [2] [%] | Compound | IC50 [1] [nM] | Ratio (PLP/FKBP*) [1]
1 | – | – | CO[C@H]1C[C@@H]2CC[C@@H](C)[C@@](O)(O2)C(=O)C(=O)N2CCCC[C@H]2C(=O)O[C@H]([C@H](C)C[C@@H]2CC[C@@H](O)[C@H](OC)C2)CC(=O)[C@H](C)/C=C(\C)[C@@H](O)[C@@H](OC)C(=O)[C@H](C)C[C@H](C)/C=C/C=C/C=C/1C [Rapamycin, rapamycin, reference compound] | 0.024 | –
2 | 460 | – | C\C1=C/C=C/C=C/[C@@H](C)C[C@@H](C)C(=O)C2CCC(CC2)OC(=O)[C@@H]2CCCCN2C(=O)C(=O)[C@]2(O)O[C@@H](CC[C@H]2C)C[C@@H]1O [Compound 16] | – | –
3 | – | 31 | CO[C@H]1C[C@@H]2CC[C@@H](C)[C@@](O)(O2)C(=O)C(=O)N2CCCC[C@H]2C(=O)OC2CCC(CC2)C(=O)[C@H](C)C[C@H](C)/C=C/C=C/C=C/1C [Compound 15] | – | –
4 | 18 | – | CO[C@H]1C[C@@H]2CC[C@@H](C)[C@@](O)(O2)C(=O)C(=O)N2CCCC[C@H]2C(=O)O[C@H]([C@H](C)C[C@H]2CC[C@H](O)CC2)C/C=C(\C)[C@@H](O)[C@@H](O)C(=O)[C@H](C)C[C@H](C)/C=C/C=C/C=C/1C [Compound 20] | – | –
5 | 4.2 | – | CO[C@H]1C[C@@H]2CC[C@@H](C)[C@@](O)(O2)C(=O)C(=O)N2CCCC[C@H]2C(=O)OC([C@H](C)C[C@@H]2CC[C@@H](O)[C@H](O)C2)C/C=C(\C)[C@@H](O)CC(=O)[C@H](C)C[C@H](C)/C=C/C=C/C=C/1C (some centres unmarked) [Compound 10] | 14000 | 3338.333
6 | – | – | CO[C@H]1C[C@@H]2CC[C@@H](C)[C@@](O)(O2)C(=O)C(=O)N2CCCC[C@H]2C(=O)OC([C@H](C)C[C@H]2CC[C@H](O)CC2)C[C@@H](O)CC(=O)[C@H](C)C[C@H](C)/C=C/C=C/C=C/1C (some centres unmarked) [Compound 4] | 4460 | –
7 | 45 | – | CO[C@H]1C[C@@H]2CC[C@@H](C)[C@](O)(CC(=O)N3CCCC[C@H]3C(=O)O[C@H]([C@H](C)C[C@H]3CC[C@H](O)CC3)C/C=C(\C)[C@@H](O)CC(=O)[C@H](C)C[C@H](C)/C=C/C=C/C=C/1C)O2 [Compound 18] | – | –
8 | 7.7 | – | C/C1=C\C[C@@H]([C@H](C)C[C@H]2CC[C@H](O)CC2)OC(=O)[C@@H]2CCCCN2C(=O)C(=O)[C@]2(O)O[C@@H](CC[C@H]2C)C[C@H](O)/C(C)=C/C=C/C=C/[C@@H](C)C[C@@H](C)C(=O)C[C@@H]1O [Compound 19] | – | –
9 | 5.9 | – | CO[C@H]1C[C@@H]2CC[C@@H](C)[C@@](O)(O2)C(=O)C(=O)N2CCCC[C@H]2C(=O)OC([C@H](C)C[C@@H]2CC[C@@H](O)[C@H](OC)C2)C/C=C(\C)[C@@H](O)CC(=O)[C@H](C)C[C@H](C)/C=C/C=C/C=C/1C (some centres unmarked) [Compound 8] | 490 | 83.05
10 | 370 | – | CO[C@H]1C[C@@H]2CC[C@@H](C)[C@](O)(CC(=O)N3CCCC[C@H]3C(=O)OC([C@H](C)C[C@H]3CC[C@H](O)CC3)CC(=O)[C@H](C)C[C@H](C)/C=C/C=C/C=C/1C)O2 (some centres unmarked) [Compound 6] | 2620 | 7.095
11 | 12 | – | CO[C@@H](C[C@@H]1CC[C@@H](C)[C@](O)(C(=O)C(=O)N2CCCC[C@H]2C(=O)O[C@@H](C/C=C(\C)C=O)[C@H](C)C[C@H]2CC[C@H](O)CC2)O1)/C(C)=C/C=C/C=C/[C@@H](C)C[C@@H](C)C(=O)CO [Compound 22] | – | –
12 | 10 | – | CC/C1=C\CC(/C(C)=C/C(C)C(C)O)OC(=O)C2CCCCN2C(=O)C(=O)C2(O)OC(CCC2C)CC(O)C(C)C(O)CC(O)CC(O)/C(C)=C/C(C)CC(C)C1O (centres unmarked) [Meridamycin] | – | –
13 | 7.9 | – | CO[C@H]1C[C@@H]2CC[C@@H](C)[C@@](O)(O2)C(=O)C(=O)N2CCCC[C@H]2C(=O)OC([C@H](C)C[C@H]2CC[C@H](O)CC2)C/C=C(\C)[C@@H](O)CC(=O)[C@H](C)C[C@H](C)/C=C/C=C/C=C/1C (some centres unmarked) [Compound 5] | – | –
14 | 9.5 | – | CO[C@H]1C[C@@H]2CC[C@@H](C)[C@@](O)(O2)C(=O)C(=O)N2CCCC[C@H]2C(=O)OC([C@H](C)Cc2ccc(CO)s2)C/C=C(\C)[C@@H](O)CC(=O)[C@H](C)C[C@H](C)/C=C/C=C/C=C/1C (some centres unmarked) [Compound 12] | 2860 | 301.5789
15 | – | 25 | CO[C@@H](C[C@@H]1CC[C@@H](C)[C@](O)(CC(=O)N2CCCC[C@H]2C(=O)O)O1)/C(C)=C/C=C/C=C/[C@@H](C)C[C@H]1CC[C@H](O)CC1 [Compound 3] | 1450 | –
16 | 430 | – | CO[C@H]1C[C@@H]2CC[C@@H](C)[C@](O)(CC(=O)N3CCCC[C@H]3C(=O)O[C@H](/C(C)=C/CC(O)[C@H](C)C[C@@H]3CC[C@@H](O)[C@H](O)C3)CC(=O)[C@H](C)C[C@H](C)/C=C/C=C/C=C/1C)O2 (some centres unmarked) [Compound 11] | 4180 | 9.721
17 | 180 | – | CO[C@H]1C[C@@H]2CC[C@@H](C)[C@](O)(CC(=O)N3CCCC[C@H]3C(=O)OC([C@H](C)C[C@@H]3CC[C@@H](O)[C@H](O)C3)C/C=C(\C)[C@@H](O)CC(=O)[C@H](C)C[C@H](C)/C=C/C=C/C=C/1C)O2 (some centres unmarked) [Compound 9] | – | –
18 | 6.5 | – | CO[C@H]1C[C@@H]2CC[C@@H](C)[C@@](O)(O2)C(=O)C(=O)N2CCCC[C@H]2C(=O)O[C@H]([C@H](C)C[C@H]2CC[C@H](O)CC2)CC(O)CC(=O)[C@H](C)/C=C(\C)[C@@H](O)CC(=O)[C@@H](C)C[C@H](C)/C=C/C=C/C=C/1C (some centres unmarked) [Compound 14] | – | –
19 | 13 | – | CO[C@H]1C[C@@H]2CC[C@@H](C)[C@@](O)(O2)C(=O)C(=O)N2CCCC[C@H]2C(=O)OC([C@H](C)Cc2ccncc2)C/C=C(\C)[C@@H](O)CC(=O)[C@H](C)C[C@H](C)/C=C/C=C/C=C/1C (some centres unmarked) [Compound 13] | 6590 | 506.6154
